Laboratory results: patent publication US11760773B2, “Small molecule drug conjugates of gemcitabine monophosphate” (MaveriX Oncology, Inc., priority 2018, dated 2023)
Values belong to the compound of their own block, whether it stands above or below them.

How the values were obtained:
[1] = Plasma PK of Int 3-3 in CD-1 mice (study c); assay type: in vivo; settings: after iv Int 3-3 8.8 mg/kg
Experimental: Objectives: to determine the plasma pharmacokinetics of Int 3-3 following a single intravenous infusion of Int 3-3 at 8.83 mg/kg in CD-1 mice
PK measurements: compare PK parameters C0, CL, Vdss, Cmax, tmax, t1/2, AUC(0-t), AUC(0-inf), MRT(0-t), MRT(0-inf) for Int 3-3.

[2] = Metabolic stability in liver hepatocytes, human; assay type: in vitro ADME
[3] = Metabolic stability in liver hepatocytes, monkey; assay type: in vitro ADME
[4] = Metabolic stability in liver hepatocytes, mouse; assay type: in vitro ADME
[5] = Metabolic stability in liver hepatocytes, dog; assay type: in vitro ADME
Rat plasma stability = assay type: in vitro ADME; settings: 3 μM, 37° C.
Experimental: (§1) Method: Assay was carried out in 96-well microtiter plates. Compounds were incubated in replicates (n=2) for 0, 5, 15, 30, and 45 minutes at 37° C. Reaction mixtures (20 μL) contained a final concentration of 3 μM test compound in fresh Sprague Dawley rat plasma. Eucatropine is a positive control to verify assay performance. Linear regression of semi-log plot of % remaining of compounds versus time used to determine the half-life t1/2 values.

[6] = Mouse plasma stability (Compound 1); assay type: in vitro ADME; settings: 37° C.
[7] = CD-1 mouse plasma stability; assay type: in vitro ADME; settings: 3 μM, 37° C.
Experimental: as §1, with “CD-1 mouse” for “Sprague Dawley rat”, “included as” for “is a”

Human plasma stability = assay type: in vitro ADME; settings: 3 μM, 37° C.
Experimental: as §1, with “human” for “fresh Sprague Dawley rat”, “included as” for “is a”, “t½” for “t1/2”

[8] = Comparative plasma PK of Compound 1 versus Int 1-4 in male CD-1 mice (study b); assay type: in vivo
Experimental: Objectives: to compare the plasma pharmacokinetics and stability of Compound 1 with its non-phosphorylated SMDC analog (Int 1-4) and in plasma following a single intravenous infusion administration of Compound 1 at 11.6 mg/kg and 23.2 mg/kg with Int 1-4 (formulation F1 & F2) at 10.0 mg/kg in male CD-1 mice
PK measurements: compare PK parameters C0, CL, Vdss, Cmax, tmax, t1/2, AUC(0-t), AUC(0-inf), MRT(0-t), MRT(0-inf) for Compound 1 and Int 1-4

[9] = Monkey liver S9 stability; assay type: in vitro ADME
Dog liver S9 stability = assay type: in vitro ADME
Human liver S9 stability = assay type: in vitro ADME
Mouse liver S9 stability = assay type: in vitro ADME
Rat liver S9 stability = assay type: in vitro ADME
[10] = negative value indicates compound is stable

AUC0-inf/AUC0-last [1]: 101%
AUC(0-t) ([1]; mouse): 3480 ng·h/mL
C0 ([1]; mouse): 45900 ng/mL
clearance ([1]; mouse): 43.3 mL/min/kg
half-life ([1]; mouse): 74.4 min
AUC(0-inf) ([1]; mouse, read-out: AUC0-inf): 3510 ng·h/mL
MRT inf ([1]; mouse, read-out: MRT0-inf): 46 min
MRT last ([1]; mouse, read-out: MRT0-last): 42.2 min
Vd ([1]; mouse, read-out: Vdss): 1.83 L/kg
Compound: [2H]C([2H])([2H])Oc1cc(OC([2H])([2H])[2H])c2oc(COC(=O)Nc3ccn([C@@H]4O[C@H](CO)[C@@H](O)C4(F)F)c(=O)n3)cc2c1 [Int 3-3]

Slope Mean ± SE ([9]; monkey liver S9): −0.1391 ± 0.01406
half-life ([9]; monkey liver S9, read-out: t1/2 Mean ± SE): 5 ± 0.5 min
microsomal CLint ([9]; monkey, liver S9, monkey liver S9, read-out: CLint Mean ± SE): 55.6 ± 5.62 µL/min/mg
Slope Mean ± SE (Dog liver S9 stability; dog liver S9): −0.03892 ± 0.001665
half-life (Dog liver S9 stability; dog liver S9, read-out: t1/2 Mean ± SE): 17.8 ± 0.8 min
microsomal CLint (Dog liver S9 stability; dog, liver S9, dog liver S9, read-out: CLint Mean ± SE): 15.6 ± 0.666 µL/min/mg
half-life (Human liver S9 stability; human liver S9, read-out: t1/2 Mean ± SE): 8.2 ± 0.2 min
microsomal CLint (Human liver S9 stability; human, liver S9, human liver S9, read-out: CLint Mean ± SE): 33.8 ± 0.92 µL/min/mg
Slope Mean ± SE (Mouse liver S9 stability; mouse liver S9): −0.06127 ± 0.006525
half-life (Mouse liver S9 stability; mouse liver S9, read-out: t1/2 Mean ± SE): 11.3 ± 1.2 min
microsomal CLint (Mouse liver S9 stability; mouse, liver S9, mouse liver S9, read-out: CLint Mean ± SE): 24.5 ± 2.61 µL/min/mg
Slope Mean ± SE (Rat liver S9 stability; rat liver S9): −0.03134 ± 0.00198
half-life (Rat liver S9 stability; rat liver S9, read-out: t1/2 Mean ± SE): 22.1 ± 1.4 min
microsomal CLint (Rat liver S9 stability; rat, liver S9, rat liver S9, read-out: CLint Mean ± SE): 12.5 ± 0.792 µL/min/mg
Compound: COc1cc2ccc(=O)oc2cc1O [Scopoletin, reference compound]

Further lines, the compound ahead of its results:

Compound: C=CCN1CC[C@]23c4c5ccc(O)c4O[C@H]2C(=O)CC[C@@]3(O)[C@H]1C5 [Naxalone]
Slope Mean ± SE [2]: −0.01335 ± 0.000878
t1/2 mean ± SE [2]: 51.9 ± 3.4 min
Slope Mean ± SE [3]: −0.02948 ± 0.001002
t1/2 mean ± SE [3, 10]: 23.5 ± 0.8 min
Slope Mean ± SE [4]: −0.01828 ± 0.000731
t1/2 mean ± SE [4]: 37.9 ± 1.5 min
Slope Mean ± SE [5]: −0.01302 ± 0.001119
t1/2 mean ± SE [5, 10]: 53.2 ± 4.6 min

Compound: CC1CC(OC(=O)C(O)c2ccccc2)CC(C)(C)N1C (centres unmarked) [Eucatropine, reference compound]
Slope Mean ± SE (Rat plasma stability; Sprague Dawley rat plasma): −0.007881 ± 0.00112
half-life at 3 μM (Rat plasma stability; fresh Sprague Dawley rat plasma, read-out: t1/2 Mean ± SE): 87.9 ± 12.5 min
Slope Mean ± SE ([6]; 3 μM): −0.03084 ± 0.003016
half-life at 3 μM ([6]; CD-1, 3 μM, read-out: t1/2 Mean ± SE): 22.5 ± 2.2 min
Slope Mean ± SE ([7]; in min-1 (unit assumed)): −0.03084 ± 0.003016
half-life at 3 μM ([7]; fresh CD-1 mouse plasma, read-out: t1/2 Mean ± SE): 22.5 ± 2.2 min
half-life at 3 μM (Human plasma stability; read-out: t1/2 Mean ± SE): 15.1 ± 1.1 min
Slope Mean ± SE (Human plasma stability; semi-log plot of % remaining versus time, in min-1 (unit assumed)): −0.04591 ± 0.003277

Compound: Gemcitabine monophosphate
AUC0-last ([8]; after iv Compound 1 11.6 mg/kg): 0.840 ng·h/mL
Cmax ([8]; after iv Compound 1 11.6 mg/kg): 33.6 ng/mL
MRT0-last ([8]; after iv Compound 1 11.6 mg/kg): 1.79 min
Tmax ([8]; after iv Compound 1 11.6 mg/kg): 1.5 min
AUC0-last ([8]; after iv Compound 1 23.2 mg/kg): 1.18 ng·h/mL
AUC(0-inf) ([8]; after iv Compound 1 23.2 mg/kg): 1.44 ng·h/mL
Cmax ([8]; after iv Compound 1 23.2 mg/kg): 30.4 ng/mL
MRT0-inf ([8]; after iv Compound 1 23.2 mg/kg): 3.3 min
MRT0-last ([8]; after iv Compound 1 23.2 mg/kg): 2.38 min
Tmax ([8]; after iv Compound 1 23.2 mg/kg): 1.5 min
t1/2 ([8]; after iv Compound 1 23.2 mg/kg): 1.64 min
